# From patent US9096494B2, “Arachidonic acid analogs and methods for analgesic treatment using same” (priority 2009, dated 2015)
# Where “and” joins values, the source holds several entries; their conditions need not be identical. Equal values may be shown once.
# Experiments:
# [1] = biological target: T1, MT1(ML1A) agonist-Melatonin (Homo sapiens, UniProt P48039); assay: Cerep BioPrint receptor binding
# T1 construct: Cerep (contract screen)
# [2] = biological target: T2, CB1 Cannabinoid agonist (Homo sapiens, UniProt P21554); assay: Cerep BioPrint receptor binding
# T2 construct: Cerep (contract screen)
# Protocol: (§1) For the initial BioPrint screen, a free compound concentration of 10 μM was used, which corresponds to a 2.5 mg/kg bolus dose in a mouse. […] Thus, a 2.5 mg/kg bolus dose would be equivalent to a […] free compound concentration.
# [3] = biological target: T3, CB2 Cannabinoid agonist (Homo sapiens, UniProt P34972); assay: Cerep BioPrint receptor binding
# T3 construct: Cerep (contract screen)
# Protocol: as §1
# [4] = biological target: T4, δ- opioid agonist (Homo sapiens, UniProt P41143); assay: Cerep BioPrint receptor binding
# T4 construct: Cerep (contract screen)
# Protocol: as §1
# [5] = biological target: T5, κ-opioid agonist (Rattus norvegicus, UniProt P34975); assay: Cerep BioPrint receptor binding
# T5 construct: Cerep (contract screen)
# Protocol: as §1
# [6] = biological target: PPRA-Peroxisome proliferator-activated (Homo sapiens, UniProt P37231); assay: Cerep BioPrint receptor binding
# [7] = biological target: T6, Adenosine/A2A (Homo sapiens, UniProt P29274); assay: Cerep BioPrint dependence and addiction panel; assay type: binding
# T6 construct: Cerep (contract screen)
# [8] = biological target: Dopamine/D1 (Homo sapiens, UniProt P21728); assay: Cerep BioPrint dependence and addiction panel; assay type: binding
# [9] = biological target: Dopamine/D2S (Homo sapiens, UniProt P14416); assay: Cerep BioPrint dependence and addiction panel; assay type: binding
# [10] = biological target: T7, GABA/GABAB(1b) (Homo sapiens, UniProt Q9UBS5); assay: Cerep BioPrint dependence and addiction panel; assay type: binding
# T7 construct: Cerep (contract screen)
# [11] = biological target: T8, Serotonin/5-HT1A (Homo sapiens, UniProt P08908); assay: Cerep BioPrint dependence and addiction panel; assay type: binding
# T8 construct: Cerep (contract screen)
# [12] = biological target: T9, Serotonin/5-Ht2A (Homo sapiens, UniProt P28223); assay: Cerep BioPrint dependence and addiction panel; assay type: binding
# T9 construct: Cerep (contract screen)
# [13] = biological target: Serotonin/5-HT3 (Homo sapiens, UniProt P46098); assay: Cerep BioPrint dependence and addiction panel; assay type: binding
# [14] = system: Sigma/Sigma non selective; assay: Cerep BioPrint dependence and addiction panel; assay type: binding
# [15] = biological target: T10, Cholecystokinin/CCK2 (Homo sapiens, UniProt P32239); assay: Cerep BioPrint dependence and addiction panel; assay type: binding
# T10 construct: Cerep (contract screen)
# [16] = biological target: T11, Opioid/mu(MOP) (Homo sapiens, UniProt P35372); assay: Cerep BioPrint dependence and addiction panel; assay type: binding
# T11 construct: Cerep (contract screening panel)
# [17] = biological target: T12, Opioid/NOP(ORL1) (Homo sapiens, UniProt P41146); assay: Cerep BioPrint dependence and addiction panel; assay type: binding
# T12 construct: Cerep (contract screening panel)
# [18] = biological target: T13, Steroid nuclear/GR (Homo sapiens, UniProt P04150); assay: Cerep BioPrint dependence and addiction panel; assay type: binding
# T13 construct: Cerep (contract screening panel)
# [19] = system: Dopamine transporter/5HT transporter; assay: Cerep BioPrint dependence and addiction panel; assay type: binding
# [20] = system: plasma or serum proteins; assay: Binding to plasma or serum proteins; assay type: in vitro ADME
# Protocol: as §1
# [21] = system: dopamine levels; assay: Effect on dopamine levels; settings: compared with Δ9-THC
# [22] = system: CB1 cannabinoid knockout mice; assay: Analgesic effect in CB1 cannabinoid knockout mice; assay type: in vivo; settings: CB1 cannabinoid knockout mice (homozygotes)
# [23] = system: TRPV1 vanilloid knockout mice; assay: Analgesic effect in TRPV1 vanilloid knockout mice; assay type: in vivo; settings: TRPV1 vanilloid knockout mice (homozygotes)
# [24] = system: mice; assay: Tail-flick assay in mouse; assay type: in vivo; settings: 10 mg/kg intravenous bolus
# Protocol: The tail-flick assay is based on the time measured to reflex withdrawal of the tail in response to a radiant heat source. The maximum exposure time to the radiant heat source is set at 10 seconds. Prior to treatment, a baseline (BL) time measured to tail-flick withdrawal is determined after two exposures to the radiant source separated by a 30 min period. Control mice are intravenously treated with vehicle and test mice are intravenously treated with analgesic test compound. Data of tail-flick withdrawal of treated mice (TM) are calculated as maximum possible effect (MPE), where MPE=(TM−BL)/(10−BL). Tail-flick withdrawal is measured at 5 min, 15 min, 30 mm, and 1 hr. A total of 3-5 mice are used for each time point tested.
# [25] = LD50 established using mice; assay type: in vivo; settings: in vivo, body surface area translation mouse to human
# Protocol: (§2) LD50 (abbreviation for “Lethal Dose, 50%”) is established using mice. The dose translation between mouse and human is based on body surface area allometric translation. For example, a 1 mg/kg mouse dose is equivalent to a 0.08 mg/kg human dose. For more information on species dose translation see: Reagan-Shaw et. al, FASEB J. 122, 659-661 (2007).
# [26] = system: mice; assay: LD50 established using mice; assay type: in vivo
# Protocol: as §2
# [27] = Antipyretic effect; assay type: in vivo, mice; settings: CMX-020 Injectable Solution
# Protocol: CMX-020 Injectable Solution may also be given to patients during surgery or dental procedures to relieve pain and as an adjunct to an anaesthetic.
# Recordings of body temperature in male mice (30 grams) were achieved using a mouse rectal temperature probe. Baseline was recorded twice for 10 minutes at intervals of 2 minutes with a 15 minute span of no recording.
# [28] = Analgesic potency comparison with natural EETs and AM404; settings: in vivo
# From the text: Chemically, it is close structural analog of a set of lipid mediators derived from arachidonic acid that the body uses to control pain.
# [29] = in vivo; settings: mouse, iv, 10 mg/kg
# [30] = Intravenous analgesia: onset and duration of effect
# T3 sequence (P34972 whole entry): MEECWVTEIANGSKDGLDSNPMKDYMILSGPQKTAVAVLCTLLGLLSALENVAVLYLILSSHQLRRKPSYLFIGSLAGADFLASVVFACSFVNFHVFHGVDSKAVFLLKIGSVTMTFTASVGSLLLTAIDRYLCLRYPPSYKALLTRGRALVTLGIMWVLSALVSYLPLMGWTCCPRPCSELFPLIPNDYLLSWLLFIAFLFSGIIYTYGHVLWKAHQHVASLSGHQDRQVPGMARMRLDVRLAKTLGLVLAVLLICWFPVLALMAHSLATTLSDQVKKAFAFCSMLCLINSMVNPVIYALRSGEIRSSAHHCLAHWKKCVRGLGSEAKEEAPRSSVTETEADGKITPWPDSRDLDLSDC
# T2 sequence (P21554 whole entry): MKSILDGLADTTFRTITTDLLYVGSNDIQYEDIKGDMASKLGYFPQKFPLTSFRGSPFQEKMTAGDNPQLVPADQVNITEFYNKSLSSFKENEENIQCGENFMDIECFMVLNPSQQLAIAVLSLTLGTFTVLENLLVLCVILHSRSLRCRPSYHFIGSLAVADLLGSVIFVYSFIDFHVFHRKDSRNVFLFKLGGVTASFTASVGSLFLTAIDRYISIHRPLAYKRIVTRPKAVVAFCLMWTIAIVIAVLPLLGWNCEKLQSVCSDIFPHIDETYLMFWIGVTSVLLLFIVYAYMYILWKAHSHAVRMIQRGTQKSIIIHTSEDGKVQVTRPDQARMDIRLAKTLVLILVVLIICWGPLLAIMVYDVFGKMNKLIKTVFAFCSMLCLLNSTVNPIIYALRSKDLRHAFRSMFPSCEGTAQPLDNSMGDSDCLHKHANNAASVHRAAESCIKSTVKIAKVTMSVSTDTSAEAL
# T4 sequence (P41143 whole entry): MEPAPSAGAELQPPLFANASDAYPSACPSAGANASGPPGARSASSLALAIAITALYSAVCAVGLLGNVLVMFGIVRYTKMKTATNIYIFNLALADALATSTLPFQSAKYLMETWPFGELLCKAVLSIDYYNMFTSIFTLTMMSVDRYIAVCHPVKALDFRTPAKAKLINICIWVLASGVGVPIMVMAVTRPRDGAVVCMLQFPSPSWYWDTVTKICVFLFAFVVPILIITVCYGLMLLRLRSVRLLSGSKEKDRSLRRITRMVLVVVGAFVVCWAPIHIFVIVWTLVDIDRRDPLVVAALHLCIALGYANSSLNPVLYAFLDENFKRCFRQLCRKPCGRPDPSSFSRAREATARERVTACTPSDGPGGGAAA
# T5 sequence (P34975 whole entry): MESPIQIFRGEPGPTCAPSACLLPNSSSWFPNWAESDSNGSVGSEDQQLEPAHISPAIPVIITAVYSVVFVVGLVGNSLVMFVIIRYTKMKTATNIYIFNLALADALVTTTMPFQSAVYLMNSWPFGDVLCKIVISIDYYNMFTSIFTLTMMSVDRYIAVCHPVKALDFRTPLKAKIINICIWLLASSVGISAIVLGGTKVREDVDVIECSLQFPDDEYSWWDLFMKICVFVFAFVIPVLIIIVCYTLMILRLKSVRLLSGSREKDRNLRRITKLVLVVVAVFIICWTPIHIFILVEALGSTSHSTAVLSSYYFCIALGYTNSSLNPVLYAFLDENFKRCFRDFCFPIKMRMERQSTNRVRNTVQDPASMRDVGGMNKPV
# T1 sequence (P48039 whole entry): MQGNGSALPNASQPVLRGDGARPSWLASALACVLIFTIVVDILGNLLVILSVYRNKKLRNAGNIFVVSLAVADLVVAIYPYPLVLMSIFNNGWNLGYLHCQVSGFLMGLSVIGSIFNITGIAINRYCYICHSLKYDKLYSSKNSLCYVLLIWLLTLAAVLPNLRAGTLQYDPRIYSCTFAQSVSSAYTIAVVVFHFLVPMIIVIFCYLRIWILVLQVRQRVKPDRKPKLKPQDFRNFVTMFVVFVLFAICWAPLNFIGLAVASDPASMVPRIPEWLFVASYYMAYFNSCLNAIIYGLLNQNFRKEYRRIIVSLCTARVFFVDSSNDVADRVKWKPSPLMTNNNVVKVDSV
# T11 sequence (P35372 whole entry): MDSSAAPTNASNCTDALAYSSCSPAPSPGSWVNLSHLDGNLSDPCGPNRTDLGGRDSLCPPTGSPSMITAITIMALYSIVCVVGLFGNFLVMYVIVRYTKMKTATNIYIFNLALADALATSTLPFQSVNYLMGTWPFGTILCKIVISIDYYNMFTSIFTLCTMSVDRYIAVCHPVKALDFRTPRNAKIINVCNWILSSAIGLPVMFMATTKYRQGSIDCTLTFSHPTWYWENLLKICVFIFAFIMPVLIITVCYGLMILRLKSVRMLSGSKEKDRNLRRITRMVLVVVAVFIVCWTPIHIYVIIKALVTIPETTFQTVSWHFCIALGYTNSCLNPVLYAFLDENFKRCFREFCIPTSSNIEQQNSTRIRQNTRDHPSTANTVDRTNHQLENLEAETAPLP
# Serotonin/5-HT3, sequence (P46098 24-478): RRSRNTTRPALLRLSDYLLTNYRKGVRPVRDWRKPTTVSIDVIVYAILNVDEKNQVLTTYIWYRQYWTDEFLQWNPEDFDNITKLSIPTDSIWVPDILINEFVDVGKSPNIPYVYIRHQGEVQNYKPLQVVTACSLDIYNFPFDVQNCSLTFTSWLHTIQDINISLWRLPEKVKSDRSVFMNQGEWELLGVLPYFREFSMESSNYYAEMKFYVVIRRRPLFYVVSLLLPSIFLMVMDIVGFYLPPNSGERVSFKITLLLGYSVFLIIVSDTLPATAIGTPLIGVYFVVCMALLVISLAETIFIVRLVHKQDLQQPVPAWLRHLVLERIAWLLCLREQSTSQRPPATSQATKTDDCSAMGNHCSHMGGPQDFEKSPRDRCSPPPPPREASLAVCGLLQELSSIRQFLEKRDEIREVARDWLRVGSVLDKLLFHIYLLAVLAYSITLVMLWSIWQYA
# T13 sequence (P04150 whole entry): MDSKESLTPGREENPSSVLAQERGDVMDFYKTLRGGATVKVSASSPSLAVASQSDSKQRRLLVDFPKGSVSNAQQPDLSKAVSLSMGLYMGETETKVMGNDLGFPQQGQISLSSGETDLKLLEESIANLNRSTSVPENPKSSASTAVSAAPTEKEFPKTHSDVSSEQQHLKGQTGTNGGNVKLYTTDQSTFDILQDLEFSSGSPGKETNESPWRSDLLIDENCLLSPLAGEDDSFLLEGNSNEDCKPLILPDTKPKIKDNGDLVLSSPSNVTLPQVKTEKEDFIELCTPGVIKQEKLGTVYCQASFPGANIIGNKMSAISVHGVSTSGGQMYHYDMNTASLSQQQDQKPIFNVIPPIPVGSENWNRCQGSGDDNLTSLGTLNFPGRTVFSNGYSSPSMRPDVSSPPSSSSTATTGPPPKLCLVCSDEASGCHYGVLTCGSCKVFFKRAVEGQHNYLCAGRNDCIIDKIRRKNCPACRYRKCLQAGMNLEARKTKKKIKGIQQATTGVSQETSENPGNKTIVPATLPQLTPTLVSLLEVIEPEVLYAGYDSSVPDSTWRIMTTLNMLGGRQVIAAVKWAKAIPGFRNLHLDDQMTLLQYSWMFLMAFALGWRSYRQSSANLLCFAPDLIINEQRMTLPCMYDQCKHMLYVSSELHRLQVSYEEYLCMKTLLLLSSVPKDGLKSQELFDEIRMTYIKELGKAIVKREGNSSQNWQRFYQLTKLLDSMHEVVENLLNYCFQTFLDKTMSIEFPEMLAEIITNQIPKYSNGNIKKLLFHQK
# PPRA-Peroxisome proliferator-activated, sequence (P37231 whole entry): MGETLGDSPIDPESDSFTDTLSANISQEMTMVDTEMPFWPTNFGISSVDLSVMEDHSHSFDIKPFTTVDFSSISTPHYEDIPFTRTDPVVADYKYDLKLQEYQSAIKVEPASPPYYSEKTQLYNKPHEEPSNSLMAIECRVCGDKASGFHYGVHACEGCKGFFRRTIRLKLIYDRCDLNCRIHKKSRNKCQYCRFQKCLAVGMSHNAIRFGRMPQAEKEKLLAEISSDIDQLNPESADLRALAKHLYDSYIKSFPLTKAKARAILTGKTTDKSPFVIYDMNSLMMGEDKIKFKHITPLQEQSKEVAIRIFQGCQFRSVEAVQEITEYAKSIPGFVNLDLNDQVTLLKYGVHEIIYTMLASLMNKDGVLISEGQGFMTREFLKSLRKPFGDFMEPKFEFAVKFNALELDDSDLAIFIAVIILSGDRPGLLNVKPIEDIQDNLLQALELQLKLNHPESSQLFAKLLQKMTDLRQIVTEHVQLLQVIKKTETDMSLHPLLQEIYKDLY
# Dopamine/D1, sequence (P21728 whole entry): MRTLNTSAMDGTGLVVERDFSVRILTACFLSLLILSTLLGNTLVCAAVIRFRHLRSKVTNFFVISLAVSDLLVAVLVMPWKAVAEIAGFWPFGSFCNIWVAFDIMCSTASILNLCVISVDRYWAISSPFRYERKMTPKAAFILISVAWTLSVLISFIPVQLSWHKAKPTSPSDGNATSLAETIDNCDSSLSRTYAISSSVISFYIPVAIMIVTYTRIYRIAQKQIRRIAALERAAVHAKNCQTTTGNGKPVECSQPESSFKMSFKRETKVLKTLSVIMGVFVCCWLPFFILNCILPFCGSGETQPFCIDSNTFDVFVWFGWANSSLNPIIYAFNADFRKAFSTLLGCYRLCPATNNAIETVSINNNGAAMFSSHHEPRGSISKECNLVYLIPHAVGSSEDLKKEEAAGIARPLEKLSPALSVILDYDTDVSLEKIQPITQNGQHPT
# T12 sequence (P41146 whole entry, species assumed): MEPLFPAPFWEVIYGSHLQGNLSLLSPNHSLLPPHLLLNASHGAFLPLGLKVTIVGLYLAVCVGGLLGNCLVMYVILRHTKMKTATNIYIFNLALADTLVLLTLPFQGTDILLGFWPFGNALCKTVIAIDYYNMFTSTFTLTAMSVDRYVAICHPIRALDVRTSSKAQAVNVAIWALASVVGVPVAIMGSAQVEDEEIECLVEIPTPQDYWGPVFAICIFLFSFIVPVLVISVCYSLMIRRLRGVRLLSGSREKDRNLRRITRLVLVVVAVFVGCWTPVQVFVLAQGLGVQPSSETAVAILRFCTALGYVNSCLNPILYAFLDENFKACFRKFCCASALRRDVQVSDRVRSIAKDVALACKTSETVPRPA
compound,measurement,setting,value
CCCCCC(=O)N(CC/C=C\C/C=C\C/C=C\CCCC(=O)NC1CC1)C(C)C [CMX-020],IC50,[1],1200 nM
same,inhibition at 10 µM,"[1]; MT1(ML1A) agonist-Melatonin, 10 uM",88%
same,IC50,[2],21 nM
same,inhibition at 10 µM,"[2]; CB1 Cannabinoid agonist, 10 uM",98%
same,IC50,[3],150 nM
same,inhibition at 10 µM,"[3]; CB2 Cannabinoid agonist, 10 uM",98%
same,IC50,[4],13000 nM
same,inhibition at 10 µM,"[4]; δ- opioid agonist, 10 uM",52%
same,IC50,[5],4700 nM
same,inhibition at 10 µM,"[5]; κ-opioid agonist, 10 uM",61%
same,inhibition at 10 µM,[6],58%
same,inhibition at 10 µM,[7],7%
same,% Inhibition @10 uM,[8],7%
same,% Inhibition @10 uM,[9],8%
same,inhibition at 10 µM,[10],-6%
same,% Inhibition @10 uM,[11],26%
same,inhibition at 10 µM,[12],29%
same,% Inhibition @10 uM,[13],−1%
same,% Inhibition @10 uM,[14],31%
same,inhibition at 10 µM,[15],-27%
same,inhibition at 10 µM,[16],26%
same,inhibition at 10 µM,[17],5%
same,inhibition at 10 µM,[18],9%
same,% Inhibition @10 uM,[19],15%
same,fraction unbound,[20],~0.01
same,effect on dopamine levels,[21],does not elevate dopamine levels
same,analgesic effect in knockout mice,[22],almost completely blocked
same,analgesic effect in knockout mice,[23],altered
same,"time to maximal (full) analgesic response, tail-flick",[24],5 min
same,LD50,[25],2.4 mg/kg
same,"LD50 CMX-020 Doses, Maintenance",[26]; body surface area translation mouse to human,6.4 mg/kg/h
same,"LD50 CMX-020 Doses, Bolus",[26]; for a 70 kg human,170 mg
same,"LD50 CMX-020 Doses, Maintenance",[26]; for a 70 kg human,450 mg/h
same,duration of the antipyretic effect after ending administration,[27],at least 2 hours
same,time to fever reduction after the start of administration,[27],≤ 30 min
same,analgesic potency in side-by-side comparison with AM404,[28],more potent analgesic without the toxic effects
same,concentration at 15 min,[29]; brain,704 ng/g
same,concentration at 60 min,[29]; brain,< 20 ng/g
same,concentration at 15 min,[29]; liver,170 ng/g
same,concentration at 60 min,[29]; liver,< 20 ng/g
same,C0,[29]; plasma,~14000 ng/mL and ~33 µM
same,half-life,[29]; plasma,~17 min
same,time to peak effect,[30]; animal tests,within minutes
same,time for which sustained levels of analgesia can be maintained,[30]; continuous infusion,≥ 48 h
same,onset of analgesia after intravenous bolus injection or infusion,[30]; from the start of injection,3 to 5 min
same,half-time of the blood-brain equilibration,[30]; intravenous,1 to 3 min
same,duration of analgesic effect from bolus injection,[30]; intravenous bolus,20 to 30 min and 20 to 25 min
